Some results are limits rather than exact numbers.

The target of this assay is T1, oxidase-type xanthine oxidoreductase (from buttermilk) (Bos taurus, UniProt P80457).
T1 construct: purchased Calbiochem Novabiochem Corp; host or cells: buttermilk (natural source)
T1 sequence (P80457 whole entry): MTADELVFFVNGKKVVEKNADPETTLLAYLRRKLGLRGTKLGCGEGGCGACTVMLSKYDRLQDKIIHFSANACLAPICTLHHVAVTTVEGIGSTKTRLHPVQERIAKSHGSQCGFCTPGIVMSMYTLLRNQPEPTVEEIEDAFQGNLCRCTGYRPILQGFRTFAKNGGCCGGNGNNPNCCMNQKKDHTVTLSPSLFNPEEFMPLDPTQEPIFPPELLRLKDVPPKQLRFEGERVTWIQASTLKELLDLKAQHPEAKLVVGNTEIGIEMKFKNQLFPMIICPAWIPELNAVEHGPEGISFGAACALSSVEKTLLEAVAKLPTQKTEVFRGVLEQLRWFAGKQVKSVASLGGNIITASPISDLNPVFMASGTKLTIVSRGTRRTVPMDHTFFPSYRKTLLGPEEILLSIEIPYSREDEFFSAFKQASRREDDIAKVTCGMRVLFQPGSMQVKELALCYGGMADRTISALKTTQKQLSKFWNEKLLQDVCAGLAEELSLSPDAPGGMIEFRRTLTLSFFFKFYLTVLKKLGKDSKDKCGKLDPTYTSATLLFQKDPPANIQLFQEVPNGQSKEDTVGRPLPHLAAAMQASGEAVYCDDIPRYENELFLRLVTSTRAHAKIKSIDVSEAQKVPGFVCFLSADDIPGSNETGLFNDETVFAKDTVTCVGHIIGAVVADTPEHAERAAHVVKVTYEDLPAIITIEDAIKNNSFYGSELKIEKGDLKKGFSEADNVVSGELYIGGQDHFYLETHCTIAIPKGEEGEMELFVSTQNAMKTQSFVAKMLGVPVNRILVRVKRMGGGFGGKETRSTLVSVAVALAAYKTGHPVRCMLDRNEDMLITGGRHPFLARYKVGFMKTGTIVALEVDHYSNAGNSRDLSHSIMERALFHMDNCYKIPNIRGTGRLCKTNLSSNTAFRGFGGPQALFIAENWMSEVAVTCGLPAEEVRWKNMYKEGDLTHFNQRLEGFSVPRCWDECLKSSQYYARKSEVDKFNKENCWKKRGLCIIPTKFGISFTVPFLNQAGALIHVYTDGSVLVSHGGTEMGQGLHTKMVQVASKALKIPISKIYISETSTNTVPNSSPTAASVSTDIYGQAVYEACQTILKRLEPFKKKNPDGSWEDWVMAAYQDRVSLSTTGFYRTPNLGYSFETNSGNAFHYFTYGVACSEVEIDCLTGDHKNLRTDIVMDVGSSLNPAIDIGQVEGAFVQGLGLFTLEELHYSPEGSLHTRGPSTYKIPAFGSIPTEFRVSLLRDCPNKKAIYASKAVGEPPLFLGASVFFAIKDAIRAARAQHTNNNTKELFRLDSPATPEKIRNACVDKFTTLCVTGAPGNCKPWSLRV
Description: xanthine oxidase inhibitory activity (change of absorbance at 290 nm). To be noted: xanthine substrate, read-out: Inhibitor Activity. Type of assay: biochemical. As to the method:
Test compound was dissolved in DMSO (manufactured by Sigma Co.) to prepare a 20 mM solution. The solution was adjusted to an optimal concentration and used for the testing.
This evaluation was carried out by measuring oxidase-type xanthine oxidoreductase activity. Concretely, a xanthine (manufactured by Sigma Co.) solution was prepared at 10 mM using a 20 mM sodium hydroxide solution and then mixed with 100 mM phosphate buffer to adjusted to 30 μM. 75 μL of the solution was added to each well of the 96-well plate. The test compound diluted with DMSO at 100 times of a final concentration was added to each well at 1.5 μL per well. […] Immediately after mixing, the change of absorbance at 290 nm was measured for 5 minutes. The enzyme activity of DMSO solution without test compound was used as 100% control, and the inhibitory rate of the test compounds was calculated. Fifty percent inhibitory concentration of the test compounds on the oxidase-type xanthine oxidoreductase activity was calculated by fitting to the dose-response curve.
For the compound `CC(C)Oc1ccc(-c2ncc(C(=O)O)s2)cc1-n1ccnn1` [compound 20, 2-[4-(propan-2-yloxy)-3-(1H-1,2,3-triazol-1-yl)phenyl]-1,3-thiazole-5-carboxylic acid], the IC50 lay in the range of 1 to 5 nM.
On to `Cc1nc(-c2ccc(Oc3ccccc3F)c(-n3ccnc3)c2)sc1C(=O)O` [Compound No. 8, 2-[4-(2-fluorophenoxy)-3-(1H-imidazol-1-yl)phenyl]-4-methyl-1,3-thiazole-5-carboxylic acid], for which the IC50 is more than 10 nM.
For the compound `Cc1ccc(Sc2ccc(-c3nc(C)c(C(=O)O)s3)cc2-n2cnnn2)cc1` [compound 51, 4-methyl-2-{4-[(4-methylphenyl)sulfanyl]-3-(1H-1,2,3,4-tetrazol-1-yl)phenyl}-1,3-thiazole 5-carboxylic acid], the IC50 was 1 to 5 nM.
Consider `Cc1nc(-c2ccc(OCC(C)C)c(-n3cncn3)c2)sc1C(=O)O` [compound 13, 4-methyl-2-[4-(2-methylpropoxy)-3-(1H-1,2,4-triazol-1-yl)phenyl]-1,3-thiazole-5-carboxylic acid], for which the IC50 lay within 1 to 5 nM.
With `Cc1cc(F)cc(Oc2ccc(-c3nc(C)c(C(=O)O)s3)cc2-n2cnnn2)c1` [compound 46, 2-[4-(3-fluoro-5-methylphenoxy)-3-(1H-1,2,3,4-tetrazol-1-yl)phenyl]-4-methyl-1,3-thiazole-5-carboxylic acid], the IC50 is 1 to 5 nM.
On to `Cc1nc(-c2ccc(Oc3ccc(F)cc3F)c(-n3cnnn3)c2)sc1C(=O)O` [compound 42, 2-[4-(2,4-difluorophenoxy)-3-(1H-1,2,3,4-tetrazol-1-yl)phenyl]-4-methyl-1,3-thiazole-5-carboxylic acid], for which the IC50 lay in the range of 1 to 5 nM.
To `COc1cccc(F)c1Oc1ccc(-c2nc(C)c(C(=O)O)s2)cc1-n1cnnn1` [compound 43, 2-[4-(2-fluoro-6-methoxyphenoxy)-3-(1H-1,2,3,4-tetrazol-1-yl)phenyl]-4-methyl-1,3-thiazole-5-carboxylic acid] belongs 1 to 5 nM; to `Cc1nc(-c2ccc(OCC3CCC3)c(-n3cnnn3)c2)sc1C(=O)O` [compound 27, 2-[4-(cyclobutylmethoxy)-3-(1H-1,2,3,4-tetrazol-1-yl)phenyl]-4-methyl-1,3-thiazole-5-carboxylic acid], 1 to 5 nM; to `Cc1nc(-c2ccc(N3CCCC3)c(-n3cnnn3)c2)sc1C(=O)O` [Compound No. 53, 4-methyl-2-[4-(pyrrolidin-1-yl)-3-(1H-1,2,3,4-tetrazol-1-yl)phenyl]-1,3-thiazole 5-carboxylic acid], 1 to 5 nM.
Turning to `Cc1nc(-c2ccc(OCC(C)(C)O)c(-n3cnnn3)c2)sc1C(=O)O` [Compound No. 30, 2-[4-(2-hydroxy-2-methylpropoxy)-3-(1H-1,2,3,4-tetrazol-1-yl)phenyl]-4-methyl-1,3-thiazole-5-carboxylic acid], the IC50 was 1 to 5 nM.
To `Cc1nc(-c2ccc(OC3CCCC3)c(-n3cnnn3)c2)sc1C(=O)O` [compound 28, 2-[4-(cyclopentyloxy)-3-(1H-1,2,3,4-tetrazol-1-yl)phenyl]-4-methyl-1,3-thiazole-5-carboxylic acid] belongs 1 to 5 nM; to `Cc1nc(-c2ccc(Oc3ccccc3Cl)c(-n3cnnn3)c2)sc1C(=O)O` [compound 39, 2-[4-(2-chlorophenoxy)-3-(1H-1,2,3,4-tetrazol-1-yl)phenyl]-4-methyl-1,3-thiazole-5-carboxylic acid], 1 to 5 nM; to `Cc1nc(-c2ccc(OCC3CCCC3)c(-n3ccnc3)c2)sc1C(=O)O` [Compound No. 4, 2-[4-(cyclopentylmethoxy)-3-(1H-imidazol-1-yl)phenyl]-4-methyl-1,3-thiazole-5-carboxylic acid], 5 to 10 nM.
To `Cc1ccc(Oc2ccc(-c3nc(C)c(C(=O)O)s3)cc2-n2cnnn2)cc1` [compound 45, 2-[4-(4-methylphenoxy)-3-(1H-1,2,3,4-tetrazol-1-yl)phenyl]-4-methyl-1,3-thiazole-5-carboxylic acid] belongs 1 to 5 nM.
On to `Cc1cc(F)ccc1Oc1ccc(-c2nc(C)c(C(=O)O)s2)cc1-n1cnnn1` [compound 41, 2-[4-(4-fluoro-2-methylphenoxy)-3-(1H-1,2,3,4-tetrazol-1-yl)phenyl]-4-methyl-1,3-thiazole-5-carboxylic acid], for which the IC50 lay in the range of 1 to 5 nM.
For `Cc1cccc(Oc2ccc(-c3nc(C)c(C(=O)O)s3)cc2-n2cnnn2)c1` [compound 38, 2-[4-(3-methylphenoxy)-3-(1H-1,2,3,4-tetrazol-1-yl)phenyl]-4-methyl-1,3-thiazole-5-carboxylic acid], the IC50 was 1 to 5 nM.
`Cc1nc(-c2ccc(OCC3CCC3)c(-n3ccnc3)c2)sc1C(=O)O` [Compound No. 3, 2-[4-(cyclobutylmethoxy)-3-(1H-imidazol-1-yl)phenyl]-4-methyl-1,3-thiazole-5-carboxylic acid]: the IC50 lay in the range of 5 to 10 nM.
As for `Cc1nc(-c2ccc(OC(C)C)c(-n3cnnn3)c2)sc1C(=O)O` [Compound No. 24, 4-methyl-2-[4-(propan-2-yloxy)-3-(1H-1,2,3,4-tetrazole-1-yl)phenyl]-1,3-thiazole-5-carboxylic acid], the IC50 lay in the range of 1 to 5 nM.
`Cc1nc(-c2ccc(Oc3c(F)cccc3F)c(-n3cnnn3)c2)sc1C(=O)O` [compound 36, 2-[4-(2,6-difluorophenoxy)-3-(1H-1,2,3,4-tetrazol-1-yl)phenyl]-4-methyl-1,3-thiazole-5-carboxylic acid]: the IC50 is 1 to 5 nM.
In the case of `CCN(CC)c1ccc(-c2nc(C)c(C(=O)O)s2)cc1-n1cnnn1` [Compound No. 52, 2-[4-(N,N-diethylamino)-3-(1H-1,2,3,4-tetrazol-1-yl)phenyl]-4-methyl-1,3-thiazole-5-carboxylic acid], the IC50 was 1 to 5 nM.
Consider `Cc1ncn(-c2cc(-c3nc(C)c(C(=O)O)s3)ccc2OCC(C)C)n1` [compound 12, 4-methyl-2-[3-(3-methyl-1H-1,2,4-triazol-1-yl)-4-(2-methylpropoxy)phenyl]-1,3-thiazole-5-carboxylic acid], for which the IC50 is 1 to 5 nM.
For `Cc1nc(-c2ccc(SC(C)C)c(-n3cnnn3)c2)sc1C(=O)O` [compound 50, 4-methyl-2-[4-(propan-2-ylsulfanyl)-3-(1H-1,2,3,4-tetrazol-1-yl)phenyl]-1,3-thiazole-5-carboxylic acid], the IC50 was in the range of 1 to 5 nM.
To `Cc1nc(-c2ccc(OCC(C)(C)C)c(-n3cnnn3)c2)sc1C(=O)O` [compound 26, 2-[4-(2,2-dimethylpropoxy)-3-(1H-1,2,3,4-tetrazol-1-yl)phenyl]-4-methyl-1,3-thiazole-5-carboxylic acid] belongs 1 to 5 nM.
Turning to `Cc1nc(-c2ccc(Oc3ccccc3)c(-n3cncn3)c2)sc1C(=O)O` [Compound No. 15], the IC50 is more than 10 nM.
In the case of `Cc1nc(-c2ccc(Oc3cc(F)ccc3F)c(-n3cnnn3)c2)sc1C(=O)O` [compound 47, 2-[4-(2,5-difluorophenoxy)-3-(1H-1,2,3,4-tetrazol-1-yl)phenyl]-4-methyl-1,3-thiazole-5-carboxylic acid], the IC50 is 1 to 5 nM.
Consider `Cc1nc(-c2ccc(OCC(C)C)c(-n3cnc4ccccc43)c2)sc1C(=O)O` [compound 11, 2-[3-(1H-1,3-benzodiazol-1-yl)-4-(2-methylpropoxy)phenyl]-4-methyl-1,3-thiazole-5-carboxylic acid], for which the IC50 fell in the range of 1 to 5 nM.
On to `Cc1nc(-c2ccc(OCC3CCC3)c(-n3ccnn3)c2)sc1C(=O)O` [compound 19, 2-[4-(cyclobutylmethoxy)-3-(1H-1,2,3-triazol-1-yl)phenyl]-4-methyl-1,3-thiazole-5-carboxylic acid], for which the IC50 lay in the range of 1 to 5 nM.
Take `Cc1nc(-c2ccc(OCC(C)C)c(-n3ccnn3)c2)sc1C(=O)O` [compound 17, 4-methyl-2-[4-(2-methylpropoxy)-3-(1H-1,2,3-triazol-1-yl)phenyl]-1,3-thiazole-5-carboxylic acid]: the IC50 fell in the range of 1 to 5 nM.
For `Cc1cc(Oc2ccc(-c3nc(C)c(C(=O)O)s3)cc2-n2cnnn2)ccc1F` [compound 40, 2-[4-(4-fluoro-3-methylphenoxy)-3-(1H-1,2,3,4-tetrazol-1-yl)phenyl]-4-methyl-1,3-thiazole-5-carboxylic acid], the IC50 was in the range of 1 to 5 nM.
Consider `Cc1nc(-c2ccc(OC(C)C)c(-n3ccnn3)c2)sc1C(=O)O` [Compound No. 16, 4-methyl-2-[4-(propan-2-yloxy)-3-(1H-1,2,3-triazol-1-yl)phenyl]-1,3-thiazole-5-carboxylic acid], for which the IC50 is 1 to 5 nM.
In the case of `Cc1nc(-c2ccc(Oc3cccc(F)c3)c(-n3cnnn3)c2)sc1C(=O)O` [compound 37, 2-[4-(3-fluorophenoxy)-3-(1H-1,2,3,4-tetrazol-1-yl)phenyl]-4-methyl-1,3-thiazole-5-carboxylic acid], the IC50 was 1 to 5 nM.
To `Cc1nc(-c2ccc(OCC(C)(C)C)c(-n3ccnc3)c2)sc1C(=O)O` [Compound No. 2, 2-[4-(2,2-dimethylpropoxy)-3-(1H-imidazol-1-yl)phenyl]-4-methyl-1,3-thiazole-5-carboxylic acid] belongs 5 to 10 nM; to `CC(C)COc1ccc(-c2ncc(C(=O)O)s2)cc1-n1cnnn1` [compound 32, 2-[4-(2-methylpropoxy)-3-(1H-1,2,3,4-tetrazol-1-yl)phenyl]-1,3 thiazole-5-carboxylic acid], 1 to 5 nM.
Turning to `Cc1nc(-c2ccc(OCC(C)CO)c(-n3cnnn3)c2)sc1C(=O)O` (stereo not shown) [Compound No. 29, 2-[4-(3-hydroxy-2-methylpropoxy)-3-(1H-1,2,3,4-tetrazol-1-yl)phenyl]-4-methyl-1,3-thiazole-5-carboxylic acid], the IC50 was 1 to 5 nM.
